Results taken from ChEMBL document CHEMBL5050851, “Compounds that induce ferroptic cell death” (2020).

Key:
HCT-116 = assay: Antiproliferative activity against human HCT-116 cells assessed as cell death after 72 hrs by Alamar blue viability assay; format: functional, cell-based; details: HCT-116, 72 h
ES-2 = assay: Antiproliferative activity against human ES2 cells assessed as cell death after 72 hrs by Alamar blue viability assay; format: functional, cell-based; details: ES-2, 72 h

## CC1=CC(C)=[N+]2C1=Cc1ccc(CCC(=O)NCCCn3cc(CN4C(=O)C5CC=C([C@@H]6C[C@@H](OC(=O)CI)[C@]7(C)[C@H](C)CC[C@]8(C[C@H](O)C(=O)[C@]87O)[C@H]6C)CC5C4=O)nn3)n1[B-]2(F)F (stereo partly drawn)
HCT-116
  IC50: 15.7 µM
ES-2
  IC50: 1.5 µM

## C=CC(=C)[C@@H]1C[C@@H](OC(=O)CCl)[C@]2(C)[C@H](C)CC[C@]3(C[C@H](O)C(=O)[C@]32O)[C@H]1C
ES-2
  IC50: 6.7 µM

## CO[C@H]1C[C@@]23CC[C@@H](C)[C@@](C)([C@H](OC(=O)CCl)C[C@@H](C4=CCn5c(=O)n(-c6ccccc6)c(=O)n5C4)[C@@H]2C)[C@]3(O)C1=O
HCT-116
  IC50: 3 µM
ES-2
  IC50: 1.9 µM

## C[C@@H]1CC[C@@]23C[C@H](O)C(=O)[C@@]2(O)[C@]1(C)[C@H](OC(=O)CI)C[C@@H](C1=CCn2c(=O)n(-c4ccccc4)c(=O)n2C1)[C@@H]3C
HCT-116
  IC50: 0.66 µM
ES-2
  IC50: 0.24 µM

## CC(=O)O[C@H]1C[C@@]23CC[C@@H](C)[C@@](C)([C@H](OC(=O)CCl)C[C@@H](C4=CCn5c(=O)n(-c6ccccc6)c(=O)n5C4)[C@@H]2C)[C@]3(O)C1=O
HCT-116
  IC50: 3.9 µM
ES-2
  IC50: 1.4 µM

## CC1=CC(C)=[N+]2C1=Cc1ccc(CCC(=O)NCCCn3cc(CN4C(=O)C5CC=C([C@@H]6C[C@@H](OC(=O)CCl)[C@]7(C)[C@H](C)CC[C@]8(C[C@H](O)C(=O)[C@]87O)[C@H]6C)CC5C4=O)nn3)n1[B-]2(F)F (stereo partly drawn)
HCT-116
  IC50: 14.2 µM
ES-2
  IC50: 5.3 µM

## CO[C@H]1C[C@@]23CC[C@@H](C)[C@@](C)([C@H](OC(=O)c4ccco4)C[C@@H](C4=CCn5c(=O)n(-c6ccccc6)c(=O)n5C4)[C@@H]2C)[C@]3(O)C1=O
HCT-116
  IC50: > 100 µM
ES-2
  IC50: > 100 µM
